Earlier results as cited in patent US20250000913A1, “SALMONELLA ENGINEERED FOR NONTOXIC COLONIZATION OF TUMORS” (priority 2021, published 2025).

Assays:
[1] = in vivo
[2] = mouse, in vivo

Row | Compound | half-life of circulating CKD-516 [1] | day on which weight gain resumed [2] [days] | weight loss [2]
1 | COc1cc(C(=O)c2ccc(-c3csc(NC(=O)[C@@H](N)C(C)C)n3)cc2-n2cncn2)cc(OC)c1OC.Cl [CKD-516] | about 5 hours | – | –
2 | COc1cccc2c1C(=O)c1c(O)c3c(c(O)c1C2=O)C[C@@](O)(C(=O)CO)C[C@@H]3O[C@H]1C[C@H](N)[C@H](O)[C@H](C)O1 [doxorubicin] | – | 21 | over 25%
